The structures appear in SMILES notation. Like-named read-outs stand apart in the source and are kept apart here.

Common to all, as to format: cell-based, human
The test system of assay [1] is A-549 cells. As to the kind of experiment: MTT cell viability assay, A-549. The conditions noted are these: for IC50: Homo sapiens, A549. Here is the method:
All the synthesized chalcone-derived pyrazoles were evaluated for their antiproliferative activity against three human non-small cell lung cancer cell lines: A-549, H226, and H460, and a nonmalignant human embryonic kidney cell line HEK293. Cisplatin and 5-fluorouracil (5-FU) were used as a reference. […] The results of the studies are expressed as the IC50 concentration that inhibits 50% growth of cells. […] Following treatment with PCH-1, the viability of all the tested cancer cell lines decreased in a concentration-dependent manner.
The cell viability assay was performed for A-549, H226, H460, and HEK293 cells after treatment with the test compounds by using the 3-(4,5-dimethylthiazol-2-yl)-2,5-diphenyltetrazolium bromide (MTT, Sigma-Aldrich) assay. Briefly, cells were seeded onto 96-well culture plates for attachment. After 24 h, triplicate wells were treated with DMSO (1%) and the agents. […] After 2–4 h of incubation, the medium was removed, and the formazan crystals were dissolved in 100 μl of DMSO. The absorption was measured at 450 nm with an ASYS UVM340 microplate reader (Biochrom Ltd.). The 50% inhibitory concentration (IC50) was defined as the concentration that reduced the absorbance of the DMSO-treated wells by 50% of the vehicle. The IC50 values were generated from GraphPad Prism 9 software by plotting the survival curve as a function of dose from 3 independent experiments.

The subject of the next assay is H226 cells. As to the kind of experiment: MTT cell viability assay, H226. Here is the method: All the synthesized chalcone-derived pyrazoles were evaluated for their antiproliferative activity against three human non-small cell lung cancer cell lines: A-549, H226, and H460, and a nonmalignant human embryonic kidney cell line HEK293. Cisplatin and 5-fluorouracil (5-FU) were used as a reference. Cells were exposed to a range of PCH concentrations (0.5–100 µM) for 72 h and analyzed by 3-(4,5-dimethylthiazol-2-yl)-2,5-diphenyl-2H-tetrazolium bromide (MTT) assay. The results of the studies are expressed as the IC50 concentration that inhibits 50% growth of cells. […] Following treatment with PCH-1, the viability of all the tested cancer cell lines decreased in a concentration-dependent manner.
The cell viability assay was performed for A-549, H226, H460, and HEK293 cells after treatment with the test compounds by using the 3-(4,5-dimethylthiazol-2-yl)-2,5-diphenyltetrazolium bromide (MTT, Sigma-Aldrich) assay. Briefly, cells were seeded onto 96-well culture plates for attachment. After 24 h, triplicate wells were treated with DMSO (1%) and the agents. After 72 h of incubation at 37 °C in 5% CO2, the MTT solution (0.4 mg/ml) was added to each well. After 2–4 h of incubation, the medium was removed, and the formazan crystals were dissolved in 100 μl of DMSO. The absorption was measured at 450 nm with an ASYS UVM340 microplate reader (Biochrom Ltd.). The 50% inhibitory concentration (IC50) was defined as the concentration that reduced the absorbance of the DMSO-treated wells by 50% of the vehicle. The IC50 values were generated from GraphPad Prism 9 software by plotting the survival curve as a function of dose from 3 independent experiments.

Assay [2] has as its system A-549 cells. As to the kind of experiment: Western blot of apoptotic and EMT-related proteins. How it is done: To investigate the potential molecular mechanisms responsible for PCH-1-induced apoptosis in A-549 cells, we measured the expression of apoptosis-related proteins by western blot analysis. […] Next, we determined the role of the antiapoptotic protein Bcl-2 as well as the proapoptotic proteins Bax and Bid in PCH-1-induced cell death in A-549 cells. […] Additionally, we observed Bid cleavage (48 h: *p < 0.01), which was noted as a reduction in full-length Bid protein.
Epithelial-mesenchymal transition (EMT) plays a crucial role in tumorigenesis by promoting cell motility, migration, and metastasis. Thus, we examined the expression of proteins involved in the EMT process by western blot assays. […] The activity of N-cadherin in A-549 cells was reduced by 45% at 24 h (p = 0.0002) and by 50% at 48 h (p = 0.0002), while vimentin activity was reduced by 43% at 24 h (p = 0.005) and by 46% at 48 h (p = 0.004). Additional PCH-1 inhibited Transforming Growth Factor β1 (TGF-β1) induced mesenchymal-like phenotype in A-549 cells, indicating […] of N-cadherin by 66% at 48 h (p = 0.0003), and another EMT effector β-catenin, which was suppressed by 31% at 24 h (p = 0.0275) and by 66% at 48 h (p = 0.0019).
Cells (1.5 × 10^6) were cultured in tissue culture plates for overnight attachment. The cells were then incubated with IC90 of PCH-1 or 1% DMSO for 6, 24, and 48 h, or were co-treatment with 2.5 ng/ml TGF-β1 (Sigma-Aldrich), and IC90 of PCH-1 or 1% DMSO for 24, and 48 h. Subsequently, the cells were collected and lysed in Laemmli buffer with a protease inhibitor cocktail (Roche) and phosphatase inhibitors [NaF (5 mM), β-glycerophosphate (5 mM), and Na3VO4 (1 mM)]. The cells were then sonicated in triplicate (10 s, 30% amplitude) and centrifuged at 16,000×g at 12 °C for 15 min. Protein concentrations were determined using the DC Protein Assay Kit (Bio-Rad). For determining total protein content, the cellular extract was separated by 10% or 12% sodium dodecyl sulfate–polyacrylamide gel electrophoresis (SDS-PAGE) and transferred onto a microporous polyvinylidene difluoride (PVDF) membrane (Bio-Rad). After blocking with 5% (w/v) BSA (Sigma-Aldrich) in 1 × TBST (pH 7.4 and 0.1% Tween-20) for 1 h, the membranes were incubated overnight with primary antibodies at 4 °C, followed by horseradish peroxidase-conjugated secondary antibodies for 1 h. All the used antibodies are listed in Table S1 in the supplementary information. The immunoreactive signals were detected using an enhanced chemiluminescence (ECL) detection reagent kit (Thermo Fisher) and a ChemiDoc XRS + Imaging System (Bio-Rad). The band intensity was measured using Image Lab 5.2 software (Bio-Rad).

Setting [3] is: A-549 co-treated with 2.5 ng/ml TGF-β1, IC90, 48 h.

Consider `COc1ccc(C2CC(c3cc4c(cc3OC)OCO4)=NN2C(C)=O)cc1` (stereo not shown) [PCH-1, 1-[3-(6-methoxy-2H-1,3-benzodioxol-5-yl)-5-(4-methoxyphenyl)-4,5-dihydro-1H-pyrazol-1-yl]ethan-1-one], for which the “superior activity to the reference compound Cisplatin, A-549” value with A-549 cells [1] (72 h IC50 ratio) was “approximately 6.7 fold”. Moreover, the IC50 with A-549 cells [1] (72 h, MTT, read-out: IC50 ± SD, growth inhibition, A-549) is 4.32 ± 0.28 µM; with A-549 cells [1] (A-549, 24 h, read-out: IC50 after 24 h of treatment), 41.3 ± 0.75 µM; in the assay with A-549 cells [1] (A-549, 48 h, read-out: IC50 after 48 h of treatment), 25.6 ± 0.97 µM; in the assay on H226 cells (Homo sapiens, NCI-H226, 72 h, MTT, read-out: IC50 ± SD, growth inhibition, H226) it was 4.69 ± 0.43 µM. For the same molecule, the “superior activity to the reference compound Cisplatin, H226” value with H226 cells (72 h IC50 ratio) is given as about 3.7 fold. For the same molecule, in the assay on A-549 cells [2] (A-549, IC90), the Bcl-2 protein level result is “not changed”. Also, the Bax protein level entry in the assay on A-549 cells [2] (A-549, IC90, 6, 24, 48 h) is recorded as “significant increase”. For the same molecule, the “expression of hTERT” value in the assay on A-549 cells [2] (A-549, IC90, 24 and 48 h) was “significantly decreased”. The “reduction of N-cadherin” value in the assay on A-549 cells [2] (A-549, IC90, 24 h) came to 45%; in the assay with A-549 cells [2] (A-549, IC90, 48 h) it was 50%. The reduction of vimentin in the assay on A-549 cells [2] (A-549, IC90, 24 h) came out at 43%; in the assay with A-549 cells [2] (A-549, IC90, 48 h), 46%. The “suppression of β-catenin, TGF-β1 induced” value is listed as 31% in the assay on A-549 cells [2] (A-549 co-treated with 2.5 ng/ml TGF-β1, IC90, 24 h) and 66% in the assay on A-549 cells [2] (setting [3]). Moreover, the “reduction of N-cadherin, TGF-β1 induced” value in the assay on A-549 cells [2] (setting [3]) came out at 66%.
